Experimental findings from paper PMC9244950 (ACS Omega, 2022) are described below.

One data set concerns Mtb H37Rv strain. Briefly: microbe, parasite or virus in culture. It counts as cell-based, Mycobacterium tuberculosis.
A short description of data set [1]: In vitro cytotoxicity, THP-1 cell viability after 3 days. The settings on record: human, THP-1 cells. It counts as cell-based.
For the next data set, the target named is wild-type InhA (Mycobacterium tuberculosis, UniProt P9WGR1). Put plainly: InhA inhibition assay. It counts as biochemical.
The mark [2] stands for this setting: Mtb H37Rv, dual read-out (OD590 and fluorescence).
[3] abbreviates: Mycobacterium tuberculosis, H37RV.
The mark [4] stands for this setting: Mycobacterium tuberculosis, H37RV, Mtb H37Rv, dual read-out (OD590 and fluorescence).

Values after ≈ are worked out from the molar mass of the structure shown.

wild-type InhA, sequence (P9WGR1 whole entry, looked up): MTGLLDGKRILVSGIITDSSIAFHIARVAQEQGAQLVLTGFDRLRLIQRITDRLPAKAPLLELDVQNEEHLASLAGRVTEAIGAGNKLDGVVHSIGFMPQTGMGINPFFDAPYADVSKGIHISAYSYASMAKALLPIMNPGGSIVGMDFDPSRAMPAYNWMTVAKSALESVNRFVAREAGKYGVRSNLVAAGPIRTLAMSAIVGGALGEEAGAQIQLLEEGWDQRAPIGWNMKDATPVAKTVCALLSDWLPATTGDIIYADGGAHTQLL

For “2-(4-Methyl-2-oxo-2H-chromen-6-yl)isoindoline-1,3-dione [Compound 30]”, in the data set with Mtb H37Rv strain (setting [2]), the IC50 – broadly, the concentration that inhibits the measured activity by half – was greater than 200 µM and the MIC is greater than 200 µM.

With `O=C1c2ccccc2C(=O)N1c1ccc(F)cc1` [Compound 2, 2-(4-Fluorophenyl)isoindoline-1,3-dione], in the data set on Mtb H37Rv strain (setting [3]), the MIC was greater than 200 µM. The IC50 in the data set on Mtb H37Rv strain (setting [4]) worked out at 197 µM.

In turn, `Cc1ccccc1N1C(=O)c2ccccc2C1=O` [Compound 3, 2-(o-Tolyl)isoindoline-1,3-dione] displayed an MIC against Mtb H37Rv strain (setting [3]) of 194 µM (≈ 46 µg/mL). Moreover, the IC50 in the data set with Mtb H37Rv strain (setting [4]) was 68 µM.

In the data set on Mtb H37Rv strain (setting [3]), `O=C1c2ccccc2C(=O)N1c1ccc(F)c(Cl)c1` [Compound 4, 2-(3-Chloro-4-fluorophenyl)isoindoline-1,3-dione] gave an MIC of 186 µM (≈ 51.3 µg/mL). In addition, the IC50 in the data set with Mtb H37Rv strain (setting [4]) is 64 µM.

In the data set with Mtb H37Rv strain (setting [3]), `Cc1cccc(N2C(=O)c3ccccc3C2=O)c1` [Compound 5, 2-(m-Tolyl)isoindoline-1,3-dione] came in with an MIC of 100 µM (≈ 23.7 µg/mL). Also, in the data set on Mtb H37Rv strain (setting [4]), the IC50 worked out at 29 µM. The IC50 at 3 days in data set [1] was greater than 150 µM.

On to `O=C1c2ccccc2C(=O)N1c1ccc(Cl)cc1` [Compound 6, 2-(4-Chlorophenyl)isoindoline-1,3-dione], for which the MIC in the data set with Mtb H37Rv strain (setting [3]) was found to be 94 µM (≈ 24.2 µg/mL). Moreover, the IC50 in the data set on Mtb H37Rv strain (setting [4]) was found to be 28 µM. Also, the IC50 at 3 days in data set [1] is greater than 150 µM.

`O=C1c2ccccc2C(=O)N1c1cccc(Cl)c1` [Compound 7, 2-(3-Chlorophenyl)isoindoline-1,3-dione] yielded an MIC in the data set on Mtb H37Rv strain (setting [3]) of 96 µM (≈ 24.7 µg/mL). For the same compound, the IC50 with Mtb H37Rv strain (setting [4]) stood at 26 µM. This compound showed an IC50 at 3 days in data set [1] greater than 150 µM.

In turn, `O=C1c2ccccc2C(=O)N1c1ccc(Br)cc1` [Compound 8, 2-(4-Bromophenyl)isoindoline-1,3-dione] gave an MIC against Mtb H37Rv strain (setting [3]) of 102 µM (≈ 30.8 µg/mL). Besides, in the data set with Mtb H37Rv strain (setting [4]), the IC50 was 31 µM. In data set [1], this compound came in with an IC50 at 3 days greater than 150 µM.

For `O=C1c2ccccc2C(=O)N1c1cccc([N+](=O)[O-])c1` [Compound 10, 2-(3-Nitrophenyl)isoindoline-1,3-dione], in the data set with Mtb H37Rv strain (setting [3]), the MIC is greater than 200 µM. In the data set on Mtb H37Rv strain (setting [4]), the IC50 was 121 µM.

Compound `O=C(O)CN1C(=O)c2ccccc2C1=O` [Compound 11, 2-(1,3-Dioxoisoindolin-2-yl)acetic Acid] yielded an MIC against Mtb H37Rv strain (setting [3]) of 164 µM (≈ 33.6 µg/mL). Besides, the IC50 in the data set on Mtb H37Rv strain (setting [4]) amounted to 55 µM.

Regarding `Cc1ccnc(N2C(=O)c3ccccc3C2=O)c1` [Compound 12, 2-(4-Methylpyridin-2-yl)isoindoline-1,3-dione], the IC50 in the data set with Mtb H37Rv strain (setting [2]) is 160 µM; with Mtb H37Rv strain (setting [4]), 148 µM. In addition, the MIC in the data set on Mtb H37Rv strain (setting [3]) was greater than 200 µM.

As for `Cc1ccc(N2C(=O)c3ccccc3C2=O)nc1` [Compound 13, 2-(5-Methylpyridin-2-yl)isoindoline-1,3-dione], the IC50 amounted to 148 µM with Mtb H37Rv strain (setting [2]) and 160 µM in the data set on Mtb H37Rv strain (setting [4]). The MIC against Mtb H37Rv strain (setting [3]) is greater than 200 µM.

The compound `O=C1c2ccccc2C(=O)N1c1ccc(Br)cn1` [Compound 14, 2-(5-Bromopyridin-2-yl)isoindoline-1,3-dione] yielded an MIC with Mtb H37Rv strain (setting [3]) greater than 200 µM. The IC50 in the data set with Mtb H37Rv strain (setting [4]) stood at 90 µM.

`COc1ccc(-c2nnc(N3C(=O)c4ccccc4C3=O)s2)cc1` [Compound 16, 2-(5-(4-Methoxyphenyl)-1,3,4-thiadiazol-2-yl)isoindoline-1,3-dione] came in with an MIC in the data set with Mtb H37Rv strain (setting [3]) of 182 µM (≈ 61.4 µg/mL). In addition, in the data set with Mtb H37Rv strain (setting [4]), the IC50 was found to be 62 µM.

Turning to `O=C1c2ccccc2C(=O)N1c1nnc(-c2ccccc2)s1` [Compound 19, 2-((5-Phenyl)-1,3,4-thiadiazol-2-yl)isoindoline-1,3-dione], the MIC in the data set with Mtb H37Rv strain (setting [3]) is greater than 200 µM. Further, the IC50 with Mtb H37Rv strain (setting [4]) is greater than 200 µM.

As for `O=C(NN1C(=O)c2ccccc2C1=O)c1ccc(O)cc1` [Compound 20, N-(1,3-Dioxoisoindoline-2-yl)-4-hydroxybenzamide], the MIC against Mtb H37Rv strain (setting [3]) is greater than 200 µM. Besides, the IC50 with Mtb H37Rv strain (setting [4]) worked out at 101 µM.

`O=C1c2ccccc2C(=O)N1c1nnc(-c2cccc(Br)c2)s1` [Compound 21, 2-(5-(3-Bromophenyl)-1,3,4-thiadiazol-2-yl)isoindoline-1,3-dione] had an MIC with Mtb H37Rv strain (setting [3]) greater than 200 µM. In the data set with Mtb H37Rv strain (setting [4]), the IC50 amounted to 100 µM.

`COc1ccccc1-c1nnc(N2C(=O)c3ccccc3C2=O)s1` [Compound 22, 2-(5-(2-Methoxyphenyl)-1,3,4-thiadiazol-2-yl)isoindoline-1,3-dione] had an MIC in the data set with Mtb H37Rv strain (setting [3]) of 180 µM (≈ 60.7 µg/mL). Also, the IC50 in the data set with Mtb H37Rv strain (setting [4]) came to 58 µM.

As for `Cc1cccc(-c2nnc(N3C(=O)c4ccccc4C3=O)s2)c1` [Compound 23, 2-(5-(m-Tolyl)-1,3,4-thiadiazol-2-yl)isoindoline-1,3-dione], in the data set on Mtb H37Rv strain (setting [3]), the MIC came out at 123 µM (≈ 39.5 µg/mL). In the data set on Mtb H37Rv strain (setting [4]), the IC50 was determined as 43 µM.

Consider `O=C1c2ccccc2C(=O)N1c1nnc(Cc2ccccc2)s1` [Compound 24, 2-(5-Benzyl--1,3,4-thiadiazol-2-yl)isoindoline-1,3-dione], for which the MIC with Mtb H37Rv strain (setting [3]) is greater than 200 µM. Besides, in the data set with Mtb H37Rv strain (setting [4]), the IC50 is greater than 200 µM.

Compound `O=C1c2ccccc2C(=O)N1c1nnc(-c2ccccc2F)s1` [Compound 25, 2-(5-(2-Fluorophenyl)-1,3,4-thiadiazol-2-yl)isoindoline-1,3-dione] showed an MIC in the data set on Mtb H37Rv strain (setting [3]) greater than 200 µM. Also, the IC50 in the data set with Mtb H37Rv strain (setting [4]) amounted to 133 µM.

The compound `O=C1c2ccccc2C(=O)N1c1nnc(-c2cccc(Cl)c2)s1` [Compound 26, 2-(5-(3-Chlorophenyl)-1,3,4-thiadiazol-2-yl)isoindoline-1,3-dione] returned an MIC in the data set with Mtb H37Rv strain (setting [3]) of 192 µM (≈ 65.6 µg/mL). In the data set with Mtb H37Rv strain (setting [4]), the IC50 is 80 µM.

Turning to `O=C1c2ccccc2C(=O)N1c1nnc(-c2ccc(I)cc2)s1` [Compound 27, 2-(5-(4-Iodophenyl)-1,3,4-thiadiazol-2-yl)isoindoline-1,3-dione], in the data set on Mtb H37Rv strain (setting [3]), the MIC was 64 µM (≈ 27.7 µg/mL). Also, the values for the IC50 in the data set on Mtb H37Rv strain (setting [4]) and on wild-type InhA were 18 µM and 8.65 µM, respectively. The IC50 at 3 days in data set [1] is greater than 200 µM.

`O=C1c2ccccc2C(=O)N1c1nnc(-c2ccccc2[N+](=O)[O-])s1` [Compound 28, 2-(5-(2-Nitrophenyl)-1,3,4-thiadiazol-2-yl)isoindoline-1,3-dione] returned an MIC in the data set with Mtb H37Rv strain (setting [3]) greater than 200 µM. Further, in the data set with Mtb H37Rv strain (setting [4]), the IC50 is 171 µM.

Compound `Cc1nnc(N2C(=O)c3ccccc3C2=O)s1` [Compound 29, 2-(5-Methyl-1,3,4-thiadiazol-2-yl)isoindolin-1,3-dione] had an MIC in the data set with Mtb H37Rv strain (setting [3]) greater than 200 µM. For the same compound, in the data set on Mtb H37Rv strain (setting [4]), the IC50 is 100 µM.

In the case of `NNC(=O)c1ccncc1` [Isoniazid, reference compound], the MIC against Mtb H37Rv strain (setting [3]) was 0.38 µM (≈ 0.0521 µg/mL). For the same compound, the IC50 in the data set on Mtb H37Rv strain (setting [4]) turned out to be 0.15 µM.
